Data from PubChem BioAssay (NCI).
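The compound was tested at five concentrations on cells cultured in 96-well plates, with a 48-hour exposure period. At the GI50, growth is halved. TGI marks complete inhibition of growth.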

Legend:
Assay in all cases: NCI-60 cell line screen, 48 h; in the data active = GI50 below about 0.43 µM; inactive = the rest
A549 NSCLC = tested on: A549 NSCLC
ACHN renal = tested on: ACHN renal
CCRF-CEM leukemia = tested on: CCRF-CEM leukemia
HOP-92 NSCLC = tested on: HOP-92 NSCLC
HT29 colon = tested on: HT29 colon
K-562 leukemia = tested on: K-562 leukemia
RPMI-8226 leukemia = tested on: RPMI-8226 leukemia
SK-MEL-5 melanoma = tested on: SK-MEL-5 melanoma
SN12C renal = tested on: SN12C renal
SW-620 colon = tested on: SW-620 colon

COc1cc(S(=O)(=O)Nc2nc(-c3ccc(N4C(=O)C(C)SC4c4ccccc4O)cc3)cs2)ccc1Cl (centres undefined)
inactive: GI50 (A549 NSCLC) 39.7 µM | GI50 (ACHN renal) 42.7 µM | GI50 (CCRF-CEM leukemia) 5.55 µM | GI50 (HOP-92 NSCLC) 28 µM | GI50 (HT29 colon) 56.5 µM | GI50 (K-562 leukemia) 33.4 µM | GI50 (RPMI-8226 leukemia) 17.4 µM | GI50 (SK-MEL-5 melanoma) 26 µM | GI50 (SN12C renal) 47.4 µM | GI50 (SW-620 colon) 62 µM
> 100 µM: TGI (A549 NSCLC) | TGI (ACHN renal) | TGI (CCRF-CEM leukemia) | TGI (HOP-92 NSCLC) | TGI (HT29 colon) | TGI (K-562 leukemia) | TGI (RPMI-8226 leukemia) | TGI (SK-MEL-5 melanoma) | TGI (SN12C renal) | TGI (SW-620 colon)

Nc1c(C(=O)c2cccc(C(O)CO)c2)cnn1-c1ccc(F)cc1 (centres undefined)
> 25 µM: TGI (A549 NSCLC) | TGI (ACHN renal) | TGI (CCRF-CEM leukemia) | TGI (HOP-92 NSCLC) | TGI (HT29 colon) | TGI (K-562 leukemia) | TGI (RPMI-8226 leukemia) | TGI (SK-MEL-5 melanoma) | TGI (SN12C renal) | TGI (SW-620 colon)
inactive: GI50 (A549 NSCLC) > 25 µM | GI50 (ACHN renal) > 25 µM | GI50 (CCRF-CEM leukemia) > 25 µM | GI50 (HOP-92 NSCLC) > 25 µM | GI50 (HT29 colon) > 25 µM | GI50 (K-562 leukemia) > 25 µM | GI50 (RPMI-8226 leukemia) > 25 µM | GI50 (SK-MEL-5 melanoma) > 25 µM | GI50 (SN12C renal) > 25 µM | GI50 (SW-620 colon) > 25 µM

Cc1c(Nc2nccc3cc(CN4CC[C@@H](O)C4)cnc23)cccc1-c1cccc(-c2nc3cc(CN4CC[C@@H](C(=O)O)C4)cc(C#N)c3o2)c1C
inactive: GI50 (A549 NSCLC) 5.33 µM | GI50 (ACHN renal) 91.7 µM | GI50 (CCRF-CEM leukemia) 3.2 µM | GI50 (HOP-92 NSCLC) 2 µM | GI50 (HT29 colon) 2.09 µM | GI50 (K-562 leukemia) 1.44 µM | GI50 (RPMI-8226 leukemia) 2.26 µM | GI50 (SK-MEL-5 melanoma) 10.2 µM | GI50 (SN12C renal) 20.1 µM | GI50 (SW-620 colon) 4.67 µM
> 100 µM: TGI (ACHN renal) | TGI (CCRF-CEM leukemia) | TGI (HOP-92 NSCLC) | TGI (K-562 leukemia) | TGI (SN12C renal)
17.9 µM: TGI (SW-620 colon)
26.5 µM: TGI (RPMI-8226 leukemia)
19.1 µM: TGI (A549 NSCLC)
4.64 µM: TGI (HT29 colon)
22.7 µM: TGI (SK-MEL-5 melanoma)

COC1=C(OC)C(=O)C(C/C=C(\C)CC/C=C(\C)CC/C=C(\C)CC/C=C(\C)CC/C=C(\C)CC/C=C(\C)CC/C=C(\C)CC/C=C(\C)CC/C=C(\C)CCC=C(C)C)=C(C)C1=O
inactive: GI50 (A549 NSCLC) > 100 µM | GI50 (ACHN renal) > 100 µM | GI50 (CCRF-CEM leukemia) > 100 µM | GI50 (HOP-92 NSCLC) > 100 µM | GI50 (HT29 colon) > 100 µM | GI50 (K-562 leukemia) > 100 µM | GI50 (RPMI-8226 leukemia) > 100 µM | GI50 (SK-MEL-5 melanoma) > 100 µM | GI50 (SN12C renal) > 100 µM | GI50 (SW-620 colon) > 100 µM
> 100 µM: TGI (A549 NSCLC) | TGI (ACHN renal) | TGI (CCRF-CEM leukemia) | TGI (HOP-92 NSCLC) | TGI (HT29 colon) | TGI (K-562 leukemia) | TGI (RPMI-8226 leukemia) | TGI (SK-MEL-5 melanoma) | TGI (SN12C renal) | TGI (SW-620 colon)

CS(=O)(=O)c1ccc(COP(N)(=O)N(CCCl)CCCl)cc1 (centres undefined)
> 100 µM: TGI (A549 NSCLC) | TGI (ACHN renal) | TGI (CCRF-CEM leukemia) | TGI (HOP-92 NSCLC) | TGI (HT29 colon) | TGI (K-562 leukemia) | TGI (RPMI-8226 leukemia) | TGI (SK-MEL-5 melanoma) | TGI (SN12C renal) | TGI (SW-620 colon)

O=S(=O)(/N=S(/Nc1ccccc1)C(F)(F)Cl)c1ccccc1 (centres undefined)
> 100 µM: TGI (A549 NSCLC) | TGI (ACHN renal) | TGI (CCRF-CEM leukemia) | TGI (HOP-92 NSCLC) | TGI (HT29 colon) | TGI (K-562 leukemia) | TGI (RPMI-8226 leukemia) | TGI (SK-MEL-5 melanoma) | TGI (SN12C renal) | TGI (SW-620 colon)

O=C1CC(C2(O)C(=O)Nc3ccc([N+](=O)[O-])cc32)c2ccccc21 (centres undefined)
> 100 µM: TGI (A549 NSCLC) | TGI (ACHN renal)
81.6 µM: TGI (SW-620 colon)
57.5 µM: TGI (RPMI-8226 leukemia)
60.6 µM: TGI (K-562 leukemia)
61.1 µM: TGI (CCRF-CEM leukemia)
75.6 µM: TGI (SK-MEL-5 melanoma)
85.4 µM: TGI (HOP-92 NSCLC)
62.7 µM: TGI (HT29 colon)
80.5 µM: TGI (SN12C renal)

O=c1[nH]c2ccccc2c(O)c1/C=N/C(=S)NC1CCCCC1
> 100 µM: TGI (A549 NSCLC) | TGI (ACHN renal) | TGI (CCRF-CEM leukemia) | TGI (HOP-92 NSCLC) | TGI (HT29 colon) | TGI (K-562 leukemia) | TGI (RPMI-8226 leukemia) | TGI (SK-MEL-5 melanoma) | TGI (SN12C renal) | TGI (SW-620 colon)

COC(=O)CC1(O)C=CC(=O)C=C1
10.3 µM: TGI (SK-MEL-5 melanoma)
9.79 µM: TGI (ACHN renal)
31.4 µM: TGI (RPMI-8226 leukemia)
22.6 µM: TGI (HOP-92 NSCLC)
> 100 µM: TGI (K-562 leukemia)
6.11 µM: TGI (CCRF-CEM leukemia)
39.4 µM: TGI (A549 NSCLC)
27.3 µM: TGI (SW-620 colon)
37.6 µM: TGI (SN12C renal)
17.6 µM: TGI (HT29 colon)

NC(N)=NC(N)=Nc1ccc(C(=O)O)cc1
> 100 µM: TGI (A549 NSCLC) | TGI (ACHN renal) | TGI (CCRF-CEM leukemia) | TGI (HOP-92 NSCLC) | TGI (HT29 colon) | TGI (K-562 leukemia) | TGI (RPMI-8226 leukemia) | TGI (SK-MEL-5 melanoma) | TGI (SN12C renal) | TGI (SW-620 colon)

COc1ccc(Nc2ncnc3ccc(-c4cncc(NS(C)(=O)=O)c4)cc23)cc1Cl
18.7 µM: TGI (K-562 leukemia) | TGI (SN12C renal)
> 100 µM: TGI (ACHN renal)
4.62 µM: TGI (HOP-92 NSCLC)
6.93 µM: TGI (HT29 colon)
22.9 µM: TGI (A549 NSCLC)
inactive: GI50 (A549 NSCLC) 5.18 µM | GI50 (ACHN renal) 4.92 µM | GI50 (CCRF-CEM leukemia) 0.896 µM | GI50 (HT29 colon) 2.07 µM | GI50 (K-562 leukemia) 3.2 µM | GI50 (RPMI-8226 leukemia) 2.11 µM | GI50 (SK-MEL-5 melanoma) 1.61 µM | GI50 (SN12C renal) 3.09 µM | GI50 (SW-620 colon) 3.23 µM
active: GI50 (HOP-92 NSCLC) 0.348 µM
4.9 µM: TGI (RPMI-8226 leukemia)
3.21 µM: TGI (SK-MEL-5 melanoma)
12.4 µM: TGI (SW-620 colon)
10 µM: TGI (CCRF-CEM leukemia)

Cc1nn(C)c2ncnc(N/N=C/c3cccc(O)c3O)c12
13.8 µM: TGI (HOP-92 NSCLC)
> 100 µM: TGI (A549 NSCLC) | TGI (HT29 colon) | TGI (K-562 leukemia) | TGI (RPMI-8226 leukemia) | TGI (SN12C renal) | TGI (SW-620 colon)
> 52.8 µM: TGI (CCRF-CEM leukemia)
inactive: GI50 (A549 NSCLC) 2.11 µM | GI50 (HOP-92 NSCLC) 0.747 µM | GI50 (HT29 colon) 3.94 µM | GI50 (RPMI-8226 leukemia) 0.526 µM | GI50 (SK-MEL-5 melanoma) 0.433 µM | GI50 (SN12C renal) 0.481 µM | GI50 (SW-620 colon) 0.48 µM
> 32.3 µM: TGI (ACHN renal)
active: GI50 (ACHN renal) 0.338 µM | GI50 (CCRF-CEM leukemia) 0.179 µM | GI50 (K-562 leukemia) 0.387 µM
2.31 µM: TGI (SK-MEL-5 melanoma)

COc1cc(OC)c2c(=O)cc(-c3ccccc3OCc3ccccc3)oc2c1OC
> 100 µM: TGI (A549 NSCLC) | TGI (ACHN renal) | TGI (HT29 colon) | TGI (K-562 leukemia) | TGI (RPMI-8226 leukemia) | TGI (SN12C renal) | TGI (SW-620 colon)
18.6 µM: TGI (HOP-92 NSCLC)
67.7 µM: TGI (CCRF-CEM leukemia)
4.33 µM: TGI (SK-MEL-5 melanoma)
inactive: GI50 (A549 NSCLC) 63.5 µM | GI50 (ACHN renal) 6.19 µM | GI50 (CCRF-CEM leukemia) 3.18 µM | GI50 (HOP-92 NSCLC) 2.63 µM | GI50 (HT29 colon) 28.9 µM | GI50 (K-562 leukemia) > 100 µM | GI50 (RPMI-8226 leukemia) 2.83 µM | GI50 (SK-MEL-5 melanoma) 1.84 µM | GI50 (SN12C renal) 20.4 µM | GI50 (SW-620 colon) 8.06 µM

CC1=NN(c2ccccc2)C(=O)C12[C@H](c1ccccc1)C2(C#N)C#N (some centres undefined)
21.5 µM: TGI (ACHN renal)
14.3 µM: TGI (SK-MEL-5 melanoma) | TGI (SN12C renal)
7.81 µM: TGI (HOP-92 NSCLC)
2.78 µM: TGI (CCRF-CEM leukemia)
17.1 µM: TGI (HT29 colon)
4.08 µM: TGI (RPMI-8226 leukemia)
31.9 µM: TGI (A549 NSCLC)
3.84 µM: TGI (SW-620 colon)
6.12 µM: TGI (K-562 leukemia)

COc1cc(Cc2c(C)cc(OC)c3[nH]c4ccccc4c23)cc2c1[nH]c1ccccc12
22.8 µM: TGI (SN12C renal)
7.93 µM: TGI (SK-MEL-5 melanoma)
inactive: GI50 (A549 NSCLC) 5.73 µM | GI50 (ACHN renal) 4.67 µM | GI50 (CCRF-CEM leukemia) 8.59 µM | GI50 (HOP-92 NSCLC) 7.63 µM | GI50 (HT29 colon) 7.84 µM | GI50 (K-562 leukemia) 7.31 µM | GI50 (SK-MEL-5 melanoma) 3.94 µM | GI50 (SN12C renal) 6.4 µM | GI50 (SW-620 colon) 8.09 µM
> 25 µM: TGI (ACHN renal) | TGI (CCRF-CEM leukemia) | TGI (HOP-92 NSCLC) | TGI (HT29 colon) | TGI (K-562 leukemia) | TGI (RPMI-8226 leukemia) | TGI (SW-620 colon)
16.7 µM: TGI (A549 NSCLC)
